Patent US20230263746A1, “Synergistic Polyamine Combinations And Methods Therefor” (Compound Solutions Inc., priority 2022, published 2023)
Entries after “also recorded” stand apart in the source; their conditions may differ.

How the values were obtained:
wildtype C. elegans [1] = assay: Locomotor activity (healthspan) scoring in C. elegans with respect to age; format: in vivo
From the text: FIG. 7 depicts a method of scoring locomotor activity in C. elegans wherein the animal's displacement from a fixed boundary determines an activity score. […] Using C. elegans as test subjects, this measurement can be accomplished by assigning each animal a digitally fixed boundary and observing each animal's displacement from that boundary. […] An additional control group was given no treatment. All groups were loaded into chips at the L4-stage. From the 1st day of adulthood, the animals were switched to heat-killed OP50 plus the appropriate compound. The displacement of each animal from its assigned fixed boundary determined an activity score.

wildtype C. elegans [2] = assay: Lifespan in a C. elegans model; format: in vivo; conditions: for effect on lifespan compared to control: 100 μM resveratrol, 500 μM NMN, 20 μg/mL spermidine, 6 μg/mL spermine, or 20 μg/mL spermidine with 6 μg/mL spermine, scored daily until all animals dead; for fraction of live organisms at the same date compared to control: at and after day 12 (latter third in life), FIG. 4
From the text: One physiological marker found to be beneficially and synergistically modulated by the compositions presented herein is lifespan. […] An additional control group was given no treatment. All groups were loaded into chips at the L4-stage. From the 1st day of adulthood, the animals were switched to heat-killed OP50 plus the appropriate compound. Chips were scored daily until all animals were dead.

[3] = days 10 and 12 of animal life, 100 μM resveratrol, 500 μM NMN

Structure (SMILES) | locomotor activity compared to untreated/wildtype (wildtype C. elegans [1]; [3]) | effect on lifespan compared to control (wildtype C. elegans [2]) | locomotor activity compared to untreated/wildtype (wildtype C. elegans [1]; with respect to age (all ages scored), 20 μg/mL spermidine) | fraction of live organisms at the same date compared to control (wildtype C. elegans [2]) | locomotor activity compared to untreated/wildtype (wildtype C. elegans [1]; day 8 of animal life, 6 μg/mL spermine) | locomotor activity compared to untreated/wildtype (wildtype C. elegans [1]; later ages (after day 8), 6 μg/mL spermine)
Oc1ccc(C=Cc2cc(O)cc(O)c2)cc1 [resveratrol, reference compound] | remain more active than the wildtype C. elegans; also recorded: significantly higher levels of activity than untreated groups | strongest increase to lifespan compared to control | – | – | – | –
NC(=O)c1ccc[n+]([C@@H]2O[C@H](COP(=O)([O-])O)[C@@H](O)[C@H]2O)c1 [NMN, nicotinamide mononucleotide, reference compound] | significantly higher levels of activity than the wildtype C. elegans; also recorded: significantly higher levels of activity than untreated groups | strongest increase to lifespan compared to control | – | – | – | –
NCCCCNCCCN [spermidine] | – | weakest effect on lifespan, yet still significant; also recorded: slight lifespan extension compared to the untreated group | do not show statistically significant difference in activity levels compared to wildtype C. elegans; also recorded: did not show any significant difference in activity levels compared to the untreated group | increased over control | – | –
NCCCNCCCCNCCCN [spermine] | – | significant effects on lifespan | – | increased over control | significantly more activity; also recorded: significant differences in activity levels compared to the untreated group | does not seem to persist significantly into later ages; also recorded: did not persist into later ages
